Patent US6180653A, “Aminopyrazole derivatives” (Banyu Pharmaceutical Co., Ltd., priority 1996, dated 2001)

Target: T1, human NPY Y5 receptor (Homo sapiens, UniProt Q15761)
T1 construct: expressed in transfected cells
T1 sequence (Q15761 1-445): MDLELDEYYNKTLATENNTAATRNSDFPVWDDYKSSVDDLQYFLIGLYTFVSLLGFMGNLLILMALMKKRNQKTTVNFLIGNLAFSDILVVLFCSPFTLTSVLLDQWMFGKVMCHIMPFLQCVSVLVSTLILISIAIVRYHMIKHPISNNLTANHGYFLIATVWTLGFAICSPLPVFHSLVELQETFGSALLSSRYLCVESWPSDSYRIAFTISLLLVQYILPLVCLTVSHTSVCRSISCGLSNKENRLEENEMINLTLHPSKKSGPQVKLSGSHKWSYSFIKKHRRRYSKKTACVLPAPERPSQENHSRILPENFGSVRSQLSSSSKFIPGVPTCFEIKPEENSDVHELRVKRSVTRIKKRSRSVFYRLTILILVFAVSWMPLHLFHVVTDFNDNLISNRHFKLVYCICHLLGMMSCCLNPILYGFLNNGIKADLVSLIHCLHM
Assay: test of inhibition of NPY binding ([125I] peptide YY binding to membranes of NPY Y5 receptor-expressing cells)
Conditions: [125I] peptide YY 20,000 cpm, 25° C., 2 hours, pH 7.4; membranes of transfected COS-7, CHO or LM(tk-) cells; read-out: concentration needed to inhibit 50% of the specific binding to the peptide YY (IC50 value)
Source text: cDNA Sequence encoding a human NPY Y5 receptor [International Publication WO 96/16542] was cloned into expression vectors pcDNA3, pRc/RSV (manufactured by Invitrogen) and pCI-neo (manufactured by Promega). Using the cationic lipid method [see Proceedings of the National Academy of Science of the United States of America, vol.84, p.7413 (1987)], host cells COS-7, CHO and LM(tk-) (American Type Culture Collection) were transfected with the thus prepared expression vectors to obtain cells in which the NPY Y5 receptor had been expressed.
Each of the membrane preparations thus prepared from the cells in which the NPY Y5 receptor had been expressed was incubated together with each compound to be tested and 20,000 cpm of [^125 I,] peptide YY (manufactured by Amersham) at 25° C. for 2 hours in an assay buffer solution (25 mM HEPES buffer, pH 7.4, containing 10 mM magnesium chloride, 1 mM phenylmethylsulfonyl fluoride and 0.1% bacitracin) and then, the reaction mixture was filtered through a glass filter GF/C. After washing with 50 mM Tris buffer, pH 7.4, containing 0.3% BSA, radioactivity on the glass filter was measured using a gamma counter. […]

IC50: 8.3 nM
SMILES: COc1ccc(-c2cc(NC(=O)Cc3ccc4ccccc4c3)[nH]n2)cc1OC [Example 6]
